The supplement of paper PMC10307832

Columns and labels:
Assay in all cases: relative viability (nuclei count vs DMSO), 5 days (fraction); higher = more cells survive
[1] = compound: COc1cc(Nc2c(C#N)cnc3cc(OCCCN4CCN(C)CC4)c(OC)cc23)c(Cl)cc1Cl [Bosutinib] + CS(=O)(=O)CCNCc1ccc(-c2ccc3ncnc(Nc4ccc(OCc5cccc(F)c5)c(Cl)c4)c3c2)o1 [Lapatinib] (partner 2 µM)
Outline: (§1)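 The day after seeding in 1536-well plates, lung cancer cell lines were treated by pin tool with a single drug, or with a fixed anchor-drug dose together with five library-drug doses (not always all listed) in √10 steps. After 5 days, a combined fix-and-stain solution (final 0.05% Triton X-100, 1% formaldehyde, 1 ug/ml Hoechst) was added. Nuclei counted on 4× images gave relative viability as treated counts over vehicle counts, reported as the median of duplicate plates.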

[2] = compound: COc1cc(Nc2c(C#N)cnc3cc(OCCCN4CCN(C)CC4)c(OC)cc23)c(Cl)cc1Cl [Bosutinib] + N=C(N)NC(=N)NCCc1ccccc1 [Phenformin] (partner 250 µM)
Outline: as §1

[3] = compound: COc1cc(Nc2c(C#N)cnc3cc(OCCCN4CCN(C)CC4)c(OC)cc23)c(Cl)cc1Cl [Bosutinib] + Nc1nc2[nH]cc(CCc3ccc(C(=O)N[C@@H](CCC(=O)O)C(=O)O)cc3)c2c(=O)[nH]1 [Pemetrexed] (partner 0.2 µM)
Outline: as §1

[4] = compound: COc1cc(Nc2c(C#N)cnc3cc(OCCCN4CCN(C)CC4)c(OC)cc23)c(Cl)cc1Cl [Bosutinib] + O=C(c1cc(Cc2n[nH]c(=O)c3ccccc23)ccc1F)N1CCN(C(=O)C2CC2)CC1 [Olaparib] (partner 8 µM)
Outline: as §1

[5] = compound: COc1cc(Nc2c(C#N)cnc3cc(OCCCN4CCN(C)CC4)c(OC)cc23)c(Cl)cc1Cl [Bosutinib] + CC(=O)c1c(C)c2cnc(Nc3ccc(N4CCNCC4)cn3)nc2n(C2CCCC2)c1=O [Palbociclib] (partner 0.5 µM)
Outline: as §1

Row | Cell Line | relative viability ([1]; first compound 0.01 µM) | relative viability ([1]; first compound 0.03162 µM) | relative viability ([1]; first compound 0.1 µM) | relative viability ([1]; first compound 1 µM) | relative viability ([2]; first compound 0.01 µM) | relative viability ([2]; first compound 0.03162 µM) | relative viability ([2]; first compound 0.1 µM) | relative viability ([2]; first compound 1 µM) | relative viability ([3]; first compound 0.01 µM) | relative viability ([3]; first compound 0.03162 µM) | relative viability ([3]; first compound 0.1 µM) | relative viability ([3]; first compound 1 µM) | relative viability ([4]; first compound 0.01 µM) | relative viability ([4]; first compound 0.03162 µM) | relative viability ([4]; first compound 0.1 µM) | relative viability ([4]; first compound 1 µM) | relative viability ([5]; first compound 0.01 µM) | relative viability ([5]; first compound 0.03162 µM) | relative viability ([5]; first compound 0.1 µM) | relative viability ([5]; first compound 1 µM)
1 | 201T | 1.03 | 1.05 | 1.01 | 0.96 | 0.444 | 0.421 | 0.449 | 0.425 | 0.283 | 0.302 | 0.324 | 0.369 | 0.829 | 0.884 | 0.888 | 0.76 | 0.355 | 0.345 | 0.35 | 0.338
2 | A549 | 0.949 | 1.05 | 1.06 | 1.03 | 0.197 | 0.169 | 0.149 | 0.124 |  |  |  |  | 0.52 | 0.447 | 0.357 | 0.286 |  |  |  | 
3 | A-427 | 1.02 | 0.972 | 1 | 1.03 | 0.46 | 0.369 | 0.331 | 0.26 | 1.01 | 1.07 | 1.02 | 1.01 | 0.73 | 0.764 | 0.742 | 0.68 | 0.585 | 0.496 | 0.504 | 0.523
4 | ABC-1 | 1.26 | 1.2 | 1.05 | 0.786 | 0.186 | 0.196 | 0.224 | 0.26 |  |  |  |  | 0.531 | 0.964 | 0.743 | 0.46 | 0.864 | 0.72 | 0.759 | 0.612
5 | BEN | 0.619 | 0.699 | 0.785 | 0.52 | 0.254 | 0.257 | 0.253 | 0.25 | 0.641 | 0.772 | 0.746 | 0.576 | 1.04 | 1.05 | 1.04 | 0.735 | 0.449 | 0.444 | 0.493 | 0.447
6 | CAL-12T | 0.755 | 0.706 | 0.82 | 0.551 | 0.567 | 0.584 | 0.52 | 0.382 | 1.09 | 1.26 | 1.29 | 1.18 | 0.704 | 0.665 | 0.64 | 0.766 | 0.488 | 0.493 | 0.396 | 0.117
7 | COR-L23 | 1.01 | 0.892 | 1.04 | 1.08 | 0.432 | 0.451 | 0.449 | 0.496 | 0.2 | 0.205 | 0.224 | 0.218 | 0.341 | 0.353 | 0.348 | 0.309 | 0.275 | 0.366 | 0.22 | 0.322
8 | COR-L 105 | 0.384 | 0.403 | 0.391 | 0.3 | 0.55 | 0.522 | 0.519 | 0.357 | 1.22 | 1.1 | 0.979 | 0.777 | 0.677 | 0.743 | 0.844 | 0.603 | 0.401 | 0.385 | 0.443 | 0.412
9 | ChaGo-K-1 |  |  |  |  | 0.536 | 0.503 | 0.497 | 0.515 | 0.244 | 0.26 | 0.249 | 0.265 | 0.432 | 0.458 | 0.401 | 0.435 | 0.918 | 0.939 | 0.972 | 0.881
10 | EKVX | 0.231 | 0.216 | 0.242 | 0.172 | 0.213 | 0.248 | 0.236 | 0.223 | 0.403 | 0.406 | 0.381 | 0.361 | 0.925 | 0.86 | 0.876 | 0.628 | 0.39 | 0.367 | 0.373 | 0.314
11 | EMC-BAC-2 | 0.878 | 0.835 | 0.86 | 0.873 | 0.464 | 0.545 | 0.488 | 0.376 | 0.426 | 0.444 | 0.446 | 0.448 | 0.48 | 0.525 | 0.51 | 0.621 | 0.519 | 0.5 | 0.508 | 0.533
12 | EPLC-272H | 1.19 | 0.931 | 1.02 | 1.04 | 0.275 | 0.353 | 0.331 | 0.335 | 0.324 | 0.382 | 0.323 | 0.319 | 0.722 | 0.909 | 0.626 | 0.515 | 0.282 | 0.305 | 0.313 | 0.317
13 | H3255 | 0.251 | 0.238 | 0.235 | 0.258 | 0.361 | 0.359 | 0.356 | 0.309 | 0.555 | 0.596 | 0.621 | 0.446 | 0.568 | 0.56 | 0.598 | 0.421 | 0.322 | 0.306 | 0.323 | 0.319
14 | HARA | 0.7 | 0.657 | 0.757 | 0.76 | 0.522 | 0.431 | 0.376 | 0.45 | 0.237 | 0.27 | 0.244 | 0.264 | 0.896 | 0.825 | 0.761 | 0.515 | 0.339 | 0.293 | 0.243 | 0.171
15 | HCC-15 | 0.901 | 0.858 | 0.829 | 0.812 | 0.478 | 0.466 | 0.471 | 0.389 | 0.227 | 0.244 | 0.226 | 0.221 | 0.652 | 0.699 | 0.695 | 0.661 | 0.763 | 0.71 | 0.699 | 0.63
16 | HCC-44 | 1.03 | 0.96 | 0.982 | 1.07 | 0.247 | 0.278 | 0.185 | 0.388 | 0.661 | 0.642 | 0.683 | 0.603 | 0.981 | 0.923 | 0.978 | 1.04 | 0.985 | 0.967 | 0.964 | 0.865
